Results taken from US5117052A, “Physiologically active substances, benastatins A and B, and production and use thereof” (priority 1990, dated 1992).
Values after ≈ are worked out from the molar mass of the structure shown.

Assays:
[1] = system: Staphylococcus aureus No. 5 (MRSA); assay: Agar dilution assay, minimum growth inhibition concentration; assay type: cell-based; settings: read-out: Minimum growth-inhibition concentration
[2] = system: Shigella dysenteriae JS11910; assay: as above; assay type: cell-based; settings: JS11910, read-out: Minimum growth-inhibition concentration
[3] = system: Saccharomyces cerevisiae F-7; assay: as above; assay type: cell-based; settings: Saccharomyces cerevisiae, F7, read-out: Minimum growth-inhibition concentration
[4] = system: Bacillus subtilis NRRL B-558; assay: as above; assay type: cell-based; settings: NRRLB558
Description: (§1) The minimum of microorganism growth inhibition concentrations of benastatins A and B were determined for various bacteria, east and fungi according to a conventional agar dilution assay method. It will be seen from Table 1 that benastatins A and B have a satisfactory antimicrobial activity, particularly against gram-positive bacteria, etc.

[5] = system: Cryptococcus neoformans F-10; assay: as above; assay type: cell-based; settings: F10
Description: as §1

Micrococcus luteus FDA16 = assay: as above; assay type: cell-based
Description: as §1

[6] = system: Corynebacterium bovis 1810; assay: as above; assay type: cell-based
Description: as §1

[7] = system: Staphylococcus aureus Smith; assay: as above; assay type: cell-based
Description: as §1

[8] = system: Staphylococcus aureus MS9610; assay: as above; assay type: cell-based
Description: as §1

Cochliobolus miyabeanus = assay: as above; assay type: cell-based; settings: Bipolaris oryzae
Description: as §1

[9] = system: Bacillus cereus ATCC10702; assay: as above; assay type: cell-based
Description: as §1

Salmonella typhi T-63 = assay: as above; assay type: cell-based; settings: Salmonella enterica
[10] = system: Staphylococcus aureus No. 17 (MRSA); assay: as above; assay type: cell-based; settings: read-out: Minimum growth-inhibition concentration
Proteus rettgeri GN311 = assay: as above; assay type: cell-based; settings: Providencia rettgeri, GN311, read-out: Minimum growth-inhibition concentration
[11] = system: murine spleen cells (LPS-induced lymphocyte blastogenesis); assay: Effect on LPS-induced murine lymphocyte blastogenesis in vitro (Test 4); assay type: cell-based, BALB/c mouse
Description: (§2) In lymphocyte blast formation reaction, use was made of benastatin B as a solution prepared in a manner, wherein benastatin B was dissolved in methanol and admixed with PBS(-), with the proviso that the concentration of methanol in the final solution was 0.5%.
(§3) (a) Effect on lymphocyte blast formation reaction
(§4) For the cultivation, use was made of RPMI 1640 culture medium supplemented with 20% bovine fetus serum, 25 mM Hepes buffer, 100 μg/ml streptomycin and 100 units/ml penicillin G. The cultivation was carried out in a microplate (COSTAR) with flat bottom and with 96 wells. As the mitogens, lipopolysaccharide (LPS) and concanavalin A (Con A) were used at the final concentrations of 100 μg/ml and 5 μg/ml, respectively.
(§5) Spleen cells were taken out from BALB/c mouse (female, at most 20 weeks old) to prepare a unicellular dispersion of spleen cells. This dispersion was subjected to a hyper shock treatment to remove erythrocytes therefrom. The resulting spleen cell sample was directly used in the test employing LPS. Alternatively, the spleen cell sample was filtered through Nylon Fiber (manufactured by Wako Jun-yaku Co., Ltd.) for removing […] therefrom, and then the cell sample was used in the test employing Con A.
(§6) Each well was charged with 0.2 ml of a test sample containing 2×10^5 murine spleen cells and the test compound at a predetermined concentration. The cultivation was effected for 72 hours. Before 8 hours from the termination of the cultivation, the wells each were charged with 37 KBq of [^3 H]-thymidine in order to determine the amount of thymidine taken into the cells. The effect of the test compound was estimated by comparing the test samples with the control samples, with respect to the amount of [^3 H]-thymidine taken into the cells.

Escherichia coli NIHJ = assay: Agar dilution assay, minimum growth inhibition concentration; assay type: cell-based; settings: Escherichia coli, read-out: Minimum growth-inhibition concentration
[12] = system: graft versus host reaction (GvH); assay: Effect on graft versus host reaction (GvH) in vivo; set-up: species or system mouse (C57BL/6 spleen cells into BDF1 mouse); settings: for Spleen/body weight / Index (spleen/body weight; non induced = 1.00): subcutaneous, 3 days, day 7; for Index (spleen/body weight; non induced = 1.00): induced = 1.84
Text: In the graft versus host reaction (GvH), use was made of benastatin B dissolved in physiological saline.
(b) Effect on graft versus host reaction (GvH)
The effect on GvH was estimated according to a modified method based on the method described in M. Simonsen et al, "A study of the graft versus host reaction in transplantation to embryos, F1 hybrids, and irradiated animals", Ann. N.Y. Acad. Sci., 73, 834-841 ([…]).
Spleen cells were taken out from C57BL/6 mouse (female, 10 weeks old) to prepare a murine spleen cell sample containing 5×10^6 spleen cells according to the method as mentioned above. The spleen cell sample was transplanted into the abdominal cavity of BDF1 mouse (7 days old) as the F1 acceptor. The test compound at a predetermined concentration was subcutaneously injected over a period of time of 3 days including the initial day of said transplantation. After 7 days from the inital transplantation, measurements were made about the body weight and the spleen weight of the BDF1 mouse to calculate the ratio (mg/g) of spleen weight (mg) to body weight (g).

Aspergillus niger F-16 = assay: Agar dilution assay, minimum growth inhibition concentration; assay type: cell-based; settings: Aspergillus niger, F16, read-out: Minimum growth-inhibition concentration
[13] = system: Klebsiella pneumoniae PCI602; assay: as above; assay type: cell-based; settings: Klebsiella pneumoniae, PCI602, read-out: Minimum growth-inhibition concentration
[14] = system: murine spleen cells (Con A-induced lymphocyte blastogenesis); assay: Effect on Con A-induced murine lymphocyte blastogenesis in vitro (Test 4); assay type: cell-based, BALB/c mouse; settings: Mus musculus, 72 h
Description: as §2, §3, §4, §5, §6

[15] = system: Pseudomanas aeruginosa A3; assay: Agar dilution assay, minimum growth inhibition concentration; assay type: cell-based; settings: read-out: Minimum growth-inhibition concentration
mouse = assay: Toxicity on administration to the abdominal cavity; assay type: in vivo; settings: 100 mg/kg
Text: Benastatins A and B were each administered to the abdominal cavity of a mouse to examine the toxicity thereof.

[16] = Mus musculus, Lymphocyte, 72 h, read-out: Stimulation index LPS
[17] = read-out: Stimulation index Con A

With `CCCCCc1cc2c(c(O)c1C(=O)O)-c1cc3c(c(O)c1CC2)C(=O)c1c(O)cc(O)cc1C3(C)C` [Benastatin B, benastatin B] the MIC [1] was 3.12 µg/mL (≈ 6.21 µM), the MIC [2] was greater than 50 µg/mL and the MIC [3] was greater than 50 µg/mL. The MIC [4] was 3.12 µg/mL (≈ 6.21 µM), the MIC [5] was 50 µg/mL (≈ 99.5 µM) and the MIC (Micrococcus luteus FDA16) was 3.12 µg/mL (≈ 6.21 µM). It also gave an MIC [6] of 3.12 µg/mL (≈ 6.21 µM), an MIC [7] of 3.12 µg/mL (≈ 6.21 µM) and an MIC [8] of 3.12 µg/mL (≈ 6.21 µM). For the same compound, the MIC (Cochliobolus miyabeanus) was greater than 25 µg/mL, the MIC [9] was 3.12 µg/mL (≈ 6.21 µM) and the MIC (Salmonella typhi T-63) was greater than 50 µg/mL. It also gave an MIC [10] of 3.12 µg/mL (≈ 6.21 µM), an MIC (Proteus rettgeri GN311) of 50 µg/mL (≈ 99.5 µM) and an activity at 6.25 µg/mL [11, 16] of 138%. It also gave an activity at 12.5 µg/mL [11, 16] of 58.9%, an activity at 50 µg/mL [11, 16] of 0.4% and an activity at 3.13 µg/mL ([11]; Mus musculus, Lymphocyte, 72 h, 3.13 μg/ml, control = 100, read-out: Stimulation index LPS) of 148%. It also gave an activity at 25 µg/mL ([11]; Mus musculus, Lymphocyte, 72 h, 25 μg/ml, control = 100, read-out: Stimulation index LPS) of 0.2%, an activity at 100 µg/mL ([11]; Mus musculus, Lymphocyte, 72 h, 100 μg/ml, control = 100, read-out: Stimulation index LPS) of 0.2% and a minimal effective concentration ([11]; Mus musculus, Lymphocyte, 72 h, read-out: concentration that significantly suppresses LPS-induced lymphocyte blast formation) of no less than 12.5 µg/mL. The “effect on LPS-induced lymphocyte blast formation at a low concentration” value ([11]; low concentration) was “potentiates”, the MIC (Escherichia coli NIHJ) was 100 µg/mL (≈ 199 µM) and the Spleen/body weight ([12]; 0.5 mg/kg) was 12.5 ± 2.2 mg/kg. The “Index (spleen/body weight; non induced = 1.00)” value ([12]; 0.5 mg/kg) was 2.78, the Spleen/body weight ([12]; 5 mg/kg) was 11.5 ± 0.8 mg/kg and the “Index (spleen/body weight; non induced = 1.00)” value ([12]; 5 mg/kg) was 2.56. For the same compound, the Spleen/body weight ([12]; 50 mg/kg) was 10.6 ± 1.3 mg/kg, the “Index (spleen/body weight; non induced = 1.00)” value ([12]; 50 mg/kg) was 2.36 and the “effect on GvH” value ([12]; various amounts, strongest in a lower amount) was “significantly promotes GvH”. The MIC (Aspergillus niger F-16) was greater than 100 µg/mL, the MIC [13] was greater than 50 µg/mL and the activity at 3.13 µg/mL ([14]; 3.13 μg/ml, control = 100, read-out: Stimulation index Con A) was 106%. For the same compound, the activity at 25 µg/mL ([14]; 25 μg/ml, control = 100, read-out: Stimulation index Con A) was 1%, the activity at 100 µg/mL ([14]; 100 μg/ml, control = 100, read-out: Stimulation index Con A) was 0.9% and the activity at 6.25 µg/mL [14, 17] was 12.6%. For the same compound, the activity at 12.5 µg/mL [14, 17] was 26.8%, the activity at 50 µg/mL [14, 17] was 1% and the minimal effective concentration ([14]; read-out: concentration that significantly suppresses Con A-induced lymphocyte blast formation) was no less than 6.25 µg/mL. The MIC [15] was 50 µg/mL (≈ 99.5 µM) and the Toxicity (mouse) was “No toxicity was observed”.
